Reference: patent publication US6558900B2, “Regulation of apoptosis and in vitro model for studies thereof” (Emory University, priority 1996, dated 2003)

Tested on: CPP32
Experiment: Apaf-2 activity: recombining with phosphocellulose flow through fraction (Apaf-1) and 35S-labeled CPP32
Format: biochemical, human
Details: phosphocellulose fraction alone, with or without 1 mM dATP
Experimental: FIG. 3 illustrates fractionation and reconstitution of dATP-dependent activation of CPP32 by phosphocellulose chromatography. HeLa cell S-100 was subjected to phosphocellulose chromatography and the column flow through and bound material were collected as described in the Examples. Aliquots (10 μl) of HeLa S-100 (50 μg) (lanes 1 and 2), phosphocellulose flow through fraction (PC-FT) (lanes 3 and 4), phosphocellulose bound fraction (PC-B) (lanes 5 and 6), and the mixture of phosphocellulose flow through and bound material (lanes 7 and 8) were incubated with aliquots of 3 μl in vitro translated, ^35S-labeled CPP32 at 30° C. for 1 hr in the absence (lanes 1,3,5,7) or presence (lanes 2,4,6,8) of 1 mM dATP. The samples were subjected to SDS-PAGE, transferred to a nitrocellulose filter, and the filter was exposed to film for 16 hours at room temperature.
The Apaf-2 activity that bound to the phosphocellulose column was purified through the Mono S column as described in Example 7. […] In FIG. 4B, aliquots (30 μl) of the Mono-S fractions were subjected to 15% SDS-PAGE and the proteins were visualized by silver staining.
Aliquots of 0.2 μg of Apaf-2 purified through the Mono S column (lanes 1, 2), cytochrome c from bovine heart (lanes 3, 4), and rat liver (lanes 5, 6) were incubated with aliquots of 10 μl phosphocellulose flowthrough fraction and 3 μl in vitro translated, 35S-labeled CPP32 at 30° C. for 1 hr in a final volume of 20 μl buffer A in the absence (lanes 1,3,5) or presence of (lanes 2, 4, 6) 1 mM dATP. Samples were subjected to SDS-PAGE and transferred to a nitrocellulose filter which was then exposed to a film for 16 hr at room temperature.
To isolate the protein(s) required for the activation of CPP32, HeLa S-100 was loaded onto a phosphocellulose column, and the flow-through and bound fractions were collected. […] When the flowthrough and bound fractions were mixed, CPP32-activating activity was restored (lanes 7-8). […] The factor(s) that flow through the phosphocellulose column are designated apoptotic protease activating factor-1 (Apaf-1) and the factor that bound to the column is designated apoptotic protease activating factor-2 (Apaf-2). It is understood that “Apaf-1” may represent more than one protein or it may represent a combination of protein(s) and other factors.
Apaf-2 activity was assayed by recombining with Apaf-1 after purification by the following steps. First, the Apaf-2 fraction was subjected to 50% ammonium sulfate precipitation. All of the activity remained in the supernatant while most of the protein precipitated (Table I). The supernatant was loaded onto a phenyl-sepharose (hydrophobic interaction) column and the activity was eluted with 1 M ammonium sulfate. The eluate was passed through a gel filtration column; active fractions were subjected to sequential Mono Q (anion exchange) and Mono S (cation exchange) chromatography. The Apaf-2 activity flowed through the Mono Q column, and the flow through was directly loaded onto the Mono S column. Bound Apaf-2 activity was then eluted with a 100-300 mM NaCl linear salt gradient. The fractions from the Mono S column were collected and assayed. […] The active fractions were analyzed by SDS-PAGE (FIG. 4B). A protein of apparent molecular mass of 15 kDa was co-eluted with the activity. No other proteins were detected by silver staining in the active Apaf-2 fractions.
CPP32 was translated and purified as described above. […]

Apaf-2: 15 kDa factor bound to phosphocellulose column, purified from HeLa S-100, identified as human cytochrome c
dATP-dependent activation of CPP32 by fraction alone: Neither fraction alone supported dATP-dependent activation of CPP32
